How the values were obtained:
Type in all cases: in vivo
Conditions in all cases: 140 g ai/ha alone
[1] = system: TRZAS, Triticum aestivum (spring wheat); assay: Greenhouse postemergence phytotoxicity on crop (visual injury, 20-22 d)
Excerpt: (§1) Greenhouse Trial Methodology—Evaluation of Postemergence Herbicidal Effect
(§2) Seeds of the desired test plant species were planted in a 90:10% v/v (volume/volume) mixture of PRO-MIX® BX (Premier Tech Horticulture, Quakertown, Pa., USA) and PROFILE®GREENS GRADE™ (Profile Products LLC, Buffalo Grove, Ill., USA) planting mixture, which typically has a pH of 5.2 to 6.2 and an organic matter content of at least 50 percent, in plastic pots with a surface area of 103.2 square centimeters (cm^2). In some aspects, to help ensure good germination and healthy plants, a fungicide treatment and/or other chemical or physical treatment was applied. The plants were grown for 7-36 days (d) in a greenhouse with an approximate 14-hour (h) photoperiod which was maintained at about 23° C. during the day and 22° C. during the night. Nutrients and water were added on a regular basis and supplemental lighting was provided with overhead metal halide 1000-Watt lamps as necessary. The plants were employed for testing when they reached the second or third true leaf stage.
(§3) Emulsifiable concentrates of each of each pyridine carboxylate herbicide (Compound A or Compound B) were prepared at 100 grams acid equivalent per liter (g ae/L). The emulsifiable concentrates also included a safener, cloquintocet-mexyl, at 120 grams active ingredient per liter (g ai/L), unless otherwise noted below. An aliquot of each emulsifiable concentrate was placed in a 25 mL glass vial and diluted with an aqueous mixture of 1.25% (v/v) ACTIROB® B esterified rapeseed oil (Bayer Crop Science, Research Triangle Park, N.C., USA) or MSO® Concentrate with LECI-TECH® methylated soybean oil (Loveland Products, Loveland, Colo., USA) to obtain concentrated stock solutions at the highest application rate for each herbicide, based upon a 12 milliliter (mL) application volume at a rate of 187 liters per hectare (L/ha). The concentrated stock solutions were further diluted with an aqueous mixture of 1.25% v/v ACTIROB® B or MSO® Concentrate with LECI-TECH® to obtain stock solutions at reduced application rates for each herbicide. Spray solutions of the herbicide combinations (Compound A or Compound B plus PS-II herbicide and optional HPPD herbicide) were prepared by adding weighed amounts or aliquots of the PS-II herbicide and optional HPPD herbicide to the stock solutions of Compound A or Compound B to form 12-mL spray solutions in two- or three-way combinations.
(§4) The spray solutions were applied to the plant material with an overhead Mandel track sprayer equipped with 8002E nozzles calibrated to deliver 187 L/ha over an application area of 0.503 square meters (m^2) at a spray height of 18 inches ([…] centimeters (cm)) above the average plant canopy. Control plants were sprayed in the same manner with the solvent blank. All pyridine carboxylate herbicide (component a) application rates are given as “g ae/ha” and all PS II inhibitor herbicide (component b) and HPPD inhibitor herbicide (component c) application rates are given as “g ai/ha.”
(§5) The treated plants and control plants were placed in a greenhouse as described above and watered by sub-irrigation to prevent wash-off of the test compounds. After 20-22 d, the condition of the test plants as compared with that of the control plants was determined visually and scored on a scale of 0 to 100 percent where 0 corresponds to no injury and 100 corresponds to complete kill.

[2] = system: HORVS, Hordeum vulgare (spring barley); assay: as above
Excerpt: as §1, §2, §3, §4, §5

[3] = system: STEME, Stellaria media (chickweed); assay: Greenhouse postemergence herbicidal effect (visual injury, 20-22 d)
Excerpt: as §1, §2, §3, §4, §5

[4] = system: POLCO, Polygonum convolvulus (wild buckwheat); assay: as above
Excerpt: as §1, §2, §3, §4, §5

[5] = system: BRSNN, Brassica napus (spring rape); assay: as above
Excerpt: as §1, §2, §3, §4, §5

[6] = system: AMARE, Amaranthus retroflexus (pigweed); assay: as above
Excerpt: as §1, §2, §3, §4, §5

[7] = system: ABUTH, Abutilon theophrasti (velvetleaf); assay: as above
Excerpt: as §1, §2, §3, §4, §5

[8] = system: BRSNW, Brassica napus (winter rape); assay: as above
Excerpt: as §1, §2, §3, §4, §5

[9] = system: VIOTR, Viola tricolor (wild pansy); assay: as above
Excerpt: as §1, §2, §3, §4, §5

[10] = system: MATCH, Matricaria chamomilla (wild chamomile); assay: as above
Excerpt: as §1, §2, §3, §4, §5

[11] = system: KCHSC, Kochia scoparia (kochia); assay: as above
Excerpt: as §1, §2, §3, §4, §5

[12] = system: EPHHL, Euphorbia heterophylla (poinsettia); assay: as above
Excerpt: as §1, §2, §3, §4, §5

[13] = system: SINAR, Sinapis arvensis (wild mustard); assay: as above
Excerpt: as §1, §2, §3, §4, §5

[14] = system: CIRAR, Cirsium arvense (Canada thistle); assay: as above
Excerpt: as §1, §2, §3, §4, §5

[15] = system: SETFA, Setaria faberi (giant foxtail); assay: as above
Excerpt: as §1, §2, §3, §4, §5

[16] = system: SASKR, Salsola kali (Russian thistle); assay: as above
Excerpt: as §1, §2, §3, §4, §5

[17] = system: CHEAL, Chenopodium album L. (common lambsquarters); assay: as above
Excerpt: as §1, §2, §3, §4, §5

With `N#Cc1cc(Br)c(O)c(Br)c1` [Bromoxynil, 3,5-dibromo-4-hydroxbenzonitrile, reference compound] the visual injury [1] was 0%, the visual injury [2] was 0% and the “visual injury Obs” value [3] was 0%. For the same compound, the visual injury [4] was 100%, the pest or weed control at 140 g/ha ([4]; Fallopia convolvulus, post-emergence, read-out: visual injury Obs) was 55% and the “visual injury Obs” value [5] was 3%. The visual injury [6] was 5%, the “visual injury Obs” value [7] was 30% and the visual injury [8] was 10%. For the same compound, the “visual injury Obs” value [9] was 0%, the visual injury [10] was 5% and the visual injury [11] was 38%. The “visual injury Obs” value [11] was 35%, the “visual injury Obs” value [12] was 30% and the visual injury [13] was 10%. The visual injury [14] was 45%, the “visual injury Obs” value [14] was 60% and the “visual injury Obs” value [15] was 0%. For the same compound, the visual injury [16] was 75%, the visual injury [17] was 0% and the “visual injury Obs” value [17] was 48%.

— patent US20220007644A1, “COMPOSITIONS COMPRISING PYRIDINE CARBOXYLATE HERBICIDES WITH PHOTOSYSTEM II AND OPTIONAL HPPD INHIBITOR HERBICIDES” (Corteva Agriscience LLC, priority 2018, published 2022)
